Data from ChEMBL document CHEMBL1201862, “PubChem BioAssay data set” (2004).
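1) Cells in 96-well plates. 2) Compound, 48 h, 5 concentrations. 3) Linear interpolation between surrounding doses. 4) Unreached endpoint = highest concentration. The concentration for 50% growth inhibition is given as GI50.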 Active and inactive are the calls of the source. No stated cut-off is given here; in the data, active = GI50 up to about 1.1 µM and inactive = higher. Positions of bridges follow the written chain, without caps; N, C: chain ends. Residues, ends and D or L forms follow the SMILES beside them.

Legend:
Assay in all cases: growth of human tumour cells (NCI), 48 h
HCC 2998 = system: HCC 2998
NCI-H460 = system: NCI-H460
LOX IMVI = system: LOX IMVI
UACC-257 = system: UACC-257
EKVX = system: EKVX
MDA-MB-231 = system: MDA-MB-231
RPMI-8226 = system: RPMI-8226
KM12 = system: KM12
MOLT-4 = system: MOLT-4
SNB-75 = system: SNB-75
OVCAR-4 = system: OVCAR-4
A549 = system: A549
NCI-H23 = system: NCI-H23
PC-3 = system: PC-3
HOP-62 = system: HOP-62
SK-MEL-5 = system: SK-MEL-5
NCI-H522 = system: NCI-H522
RXF 393 = system: RXF 393
K562 = system: K562
NCI-H226 = system: NCI-H226

Compound | GI50 (HCC 2998) | GI50 (NCI-H460) | GI50 (LOX IMVI) | GI50 (UACC-257) | GI50 (EKVX) | GI50 (MDA-MB-231) | GI50 (RPMI-8226) | GI50 (KM12) | GI50 (MOLT-4) | GI50 (SNB-75) | GI50 (OVCAR-4) | GI50 (A549) | GI50 (NCI-H23) | GI50 (PC-3) | GI50 (HOP-62) | GI50 (SK-MEL-5) | GI50 (NCI-H522) | GI50 (RXF 393) | GI50 (K562) | GI50 (NCI-H226)
OCC1OC(n2cnc3c2N=CNC[C@H]3O)C(Cl)C1O (stereo partly specified) | > 100 µM (inactive) | > 100 µM (inactive) | > 100 µM (inactive) | > 100 µM (inactive) | > 100 µM (inactive) | > 100 µM (inactive) | > 100 µM (inactive) | > 100 µM (inactive) | 94.2 µM (inactive) | > 100 µM (inactive) | > 100 µM (inactive) | > 100 µM (inactive) | > 100 µM (inactive) | > 100 µM (inactive) | > 100 µM (inactive) | > 100 µM (inactive) | > 100 µM (inactive) |  |  | 
CCC(C)C1NC(=O)C(CC(C)C)NC(=O)C(C(C)C)NC(=O)C2CSSCC(NC1=O)C(=O)N2 (stereo unspecified) (cyclo(CCVLI); disulfide 1-2; configuration not given here) | 0.082 µM (active) | 0.116 µM (active) | 0.0573 µM (active) | 0.141 µM (active) | 0.15 µM (active) | 0.103 µM (active) | 0.0262 µM (active) | 0.0507 µM (active) | 0.0165 µM (active) | 0.112 µM (active) | 0.18 µM (active) | 0.177 µM (active) | 0.138 µM (active) | 0.147 µM (active) | 0.186 µM (active) | 0.153 µM (active) | 0.142 µM (active) |  |  | 
COC(=O)[C@H](C)NC(=O)[C@H](NS(=O)(=O)c1nc2ccccc2s1)c1ccccc1 | 20.1 µM (inactive) | 24.9 µM (inactive) | 15.6 µM (inactive) | 12.9 µM (inactive) | 47.6 µM (inactive) | 25.9 µM (inactive) | 31 µM (inactive) | 14 µM (inactive) | 29 µM (inactive) | 18.6 µM (inactive) | 26.2 µM (inactive) |  | 36.3 µM (inactive) | 38.8 µM (inactive) | 29.4 µM (inactive) | 15.8 µM (inactive) |  | 16.9 µM (inactive) | 94.4 µM (inactive) | 14.5 µM (inactive)
C[C@]12CC[C@H](O)CC1=CC[C@@H]1C2CC[C@]2(C)c3nn(-c4ccc(F)cc4)nc3CC12 (stereo partly specified) | 24 µM (inactive) | 23.4 µM (inactive) |  | 46.8 µM (inactive) | > 100 µM (inactive) | > 100 µM (inactive) |  | 24.3 µM (inactive) | 96.4 µM (inactive) | 28.6 µM (inactive) | 16.6 µM (inactive) | 79.4 µM (inactive) | 63.4 µM (inactive) | 52.2 µM (inactive) | 80.7 µM (inactive) | 52.8 µM (inactive) | 58.3 µM (inactive) | 61.5 µM (inactive) | 4.51 µM (inactive) | 44.2 µM (inactive)
CC1=NN(c2ccccc2)C(=O)C1/N=N/c1ccc([As](=O)(O)O)c(O)c1 (stereo unspecified) |  | > 100 µM (inactive) | > 100 µM (inactive) | > 100 µM (inactive) | > 100 µM (inactive) | > 100 µM (inactive) | 57 µM (inactive) | > 100 µM (inactive) | > 100 µM (inactive) | > 100 µM (inactive) | > 100 µM (inactive) | > 100 µM (inactive) | > 100 µM (inactive) | > 100 µM (inactive) | > 100 µM (inactive) | > 100 µM (inactive) | > 100 µM (inactive) | > 100 µM (inactive) | > 100 µM (inactive) | > 100 µM (inactive)
C=CCOCn1cnc2c(N)ncnc21 | > 100 µM (inactive) | > 100 µM (inactive) | > 100 µM (inactive) | > 100 µM (inactive) | > 100 µM (inactive) | > 100 µM (inactive) | > 100 µM (inactive) | > 100 µM (inactive) | > 100 µM (inactive) | > 100 µM (inactive) | > 100 µM (inactive) | > 100 µM (inactive) | > 100 µM (inactive) | > 100 µM (inactive) | > 100 µM (inactive) | > 100 µM (inactive) |  |  | > 100 µM (inactive) | > 100 µM (inactive)
Cc1nn(C(=O)c2ccccc2O)c2c1C(c1ccc(O)cc1O)SC(=N)N2 (stereo unspecified) |  | 4.6 µM (inactive) | 4.6 µM (inactive) |  | 8.11 µM (inactive) | 5.14 µM (inactive) | 2.89 µM (inactive) | 6.19 µM (inactive) | 3.48 µM (inactive) | 2.48 µM (inactive) | 2.94 µM (inactive) | 4.76 µM (inactive) | 3.98 µM (inactive) | 3.22 µM (inactive) | 3.02 µM (inactive) | 4.12 µM (inactive) |  | 5.52 µM (inactive) | 2.63 µM (inactive) | 1.32 µM (inactive)
Cc1ccc(/C(O)=C/c2nc3ccccc3oc2=O)cc1 | > 100 µM (inactive) | > 100 µM (inactive) |  | > 100 µM (inactive) | > 100 µM (inactive) | > 100 µM (inactive) |  | > 100 µM (inactive) | 45.4 µM (inactive) | > 100 µM (inactive) | > 100 µM (inactive) | > 100 µM (inactive) | 72.1 µM (inactive) | 50.1 µM (inactive) | > 100 µM (inactive) | 19.2 µM (inactive) | 16.7 µM (inactive) | > 100 µM (inactive) | 27.4 µM (inactive) | > 100 µM (inactive)
COc1ccc(-c2nc3ncccn3c2-c2ccc([S+](C)[O-])cc2)cc1 (stereo unspecified) |  | > 100 µM (inactive) | > 100 µM (inactive) | > 100 µM (inactive) |  | > 100 µM (inactive) | > 100 µM (inactive) | 80.9 µM (inactive) | > 100 µM (inactive) | > 100 µM (inactive) | > 100 µM (inactive) | > 100 µM (inactive) | > 100 µM (inactive) | > 100 µM (inactive) | > 100 µM (inactive) | 36.8 µM (inactive) |  |  | > 100 µM (inactive) | 
O=C1/C(=C/c2cccs2)NC(=S)N1CN1CCCCC1 |  |  | 33 µM (inactive) |  | 55 µM (inactive) | > 100 µM (inactive) | 28.9 µM (inactive) | > 100 µM (inactive) | 55.5 µM (inactive) | > 100 µM (inactive) | 20.7 µM (inactive) | > 100 µM (inactive) | > 100 µM (inactive) | 98.2 µM (inactive) | > 100 µM (inactive) | 35.3 µM (inactive) | 71 µM (inactive) |  | 52.1 µM (inactive) | 78.2 µM (inactive)
Cc1ccc(SCC(CF)OC(C)n2cnc3c(Cl)nc(N)nc32)cc1 (stereo unspecified) | > 100 µM (inactive) | 53 µM (inactive) | 70.8 µM (inactive) | 19.3 µM (inactive) |  | 46.6 µM (inactive) | > 100 µM (inactive) | > 100 µM (inactive) | 25.8 µM (inactive) | > 100 µM (inactive) | 16 µM (inactive) | 44.7 µM (inactive) | 57.4 µM (inactive) | 90.6 µM (inactive) | > 100 µM (inactive) | 17.3 µM (inactive) | 18.7 µM (inactive) |  |  | > 100 µM (inactive)
O=C(O)c1ccc([N+](=O)[O-])c(P(=O)(O)O)c1 |  | > 100 µM (inactive) | > 100 µM (inactive) | > 100 µM (inactive) | > 100 µM (inactive) | > 100 µM (inactive) | > 100 µM (inactive) | > 100 µM (inactive) | > 100 µM (inactive) |  | > 100 µM (inactive) | > 100 µM (inactive) | > 100 µM (inactive) | > 100 µM (inactive) | > 100 µM (inactive) | > 100 µM (inactive) |  | > 100 µM (inactive) | > 100 µM (inactive) | > 100 µM (inactive)
Cc1cc(=O)[nH]c2cc(NC(=O)C(CCCNC(=N)N)NC(=O)OCc3ccccc3)ccc12 (stereo unspecified) | > 100 µM (inactive) | > 100 µM (inactive) | > 100 µM (inactive) | > 100 µM (inactive) | > 100 µM (inactive) | > 100 µM (inactive) |  | > 100 µM (inactive) | > 100 µM (inactive) | > 100 µM (inactive) | > 100 µM (inactive) | > 100 µM (inactive) | > 100 µM (inactive) | > 100 µM (inactive) | > 100 µM (inactive) | > 100 µM (inactive) | > 100 µM (inactive) |  | > 100 µM (inactive) | > 100 µM (inactive)
c1ccc(Cc2cc(-c3ccccc3)[nH]n2)cc1 |  | 17 µM (inactive) | 15.1 µM (inactive) | 13.3 µM (inactive) | 10.6 µM (inactive) | 11.5 µM (inactive) |  | 14 µM (inactive) | 10.4 µM (inactive) | < 0.01 µM (active) |  | 11.1 µM (inactive) |  | 15.8 µM (inactive) | 24.8 µM (inactive) |  | 16.7 µM (inactive) | 10.3 µM (inactive) | 13 µM (inactive) | 12.5 µM (inactive)
Cc1cc(C)c2ccc(N3CCNCC3)nc2n1 | > 100 µM (inactive) | > 100 µM (inactive) | > 100 µM (inactive) | > 100 µM (inactive) | > 100 µM (inactive) | > 100 µM (inactive) | > 100 µM (inactive) | > 100 µM (inactive) | > 100 µM (inactive) | > 100 µM (inactive) | > 100 µM (inactive) | > 100 µM (inactive) | > 100 µM (inactive) | > 100 µM (inactive) | > 100 µM (inactive) |  | > 100 µM (inactive) |  | > 100 µM (inactive) | > 100 µM (inactive)
Cc1ccc(-c2cc(O)c3nc4ccccc4n3c2)cc1 |  | 60.8 µM (inactive) | 75 µM (inactive) | > 100 µM (inactive) | > 100 µM (inactive) | > 100 µM (inactive) | > 100 µM (inactive) | > 100 µM (inactive) | > 100 µM (inactive) | > 100 µM (inactive) | > 100 µM (inactive) | > 100 µM (inactive) | > 100 µM (inactive) | > 100 µM (inactive) | > 100 µM (inactive) |  | 7.38 µM (inactive) | > 100 µM (inactive) | > 100 µM (inactive) | > 100 µM (inactive)
